Experiment [1] has as its target Coagulation factor X (Homo sapiens, UniProt P00742). As to the kind of experiment: Inhibition of f10a.
Experiment [2] addresses Urokinase-type plasminogen activator (Homo sapiens, UniProt P00749). Nature of the experiment: Inhibition of uPA.
For experiment [3], the target named is Prothrombin (Homo sapiens, UniProt P00734). Nature of the experiment: Inhibition of thrombin.
The target in experiment [4] is Plasminogen (Homo sapiens, UniProt P00747). Nature of the experiment: Inhibition of plasmin.
Sequence of Plasminogen (P00747 97-580 limits assumed): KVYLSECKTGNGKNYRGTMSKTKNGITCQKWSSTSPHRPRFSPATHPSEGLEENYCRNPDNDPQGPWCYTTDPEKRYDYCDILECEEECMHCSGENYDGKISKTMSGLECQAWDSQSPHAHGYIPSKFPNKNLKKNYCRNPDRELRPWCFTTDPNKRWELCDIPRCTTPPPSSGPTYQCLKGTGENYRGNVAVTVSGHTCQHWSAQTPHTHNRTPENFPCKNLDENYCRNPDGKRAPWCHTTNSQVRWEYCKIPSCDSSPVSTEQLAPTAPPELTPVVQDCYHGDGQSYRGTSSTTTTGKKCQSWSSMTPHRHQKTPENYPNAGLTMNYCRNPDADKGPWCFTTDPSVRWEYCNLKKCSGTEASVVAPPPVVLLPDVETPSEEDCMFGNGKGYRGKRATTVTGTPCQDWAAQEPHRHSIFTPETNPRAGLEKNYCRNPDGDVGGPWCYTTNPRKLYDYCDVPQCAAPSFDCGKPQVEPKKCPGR
Sequence of Plasminogen (P00747 581-810 limits assumed): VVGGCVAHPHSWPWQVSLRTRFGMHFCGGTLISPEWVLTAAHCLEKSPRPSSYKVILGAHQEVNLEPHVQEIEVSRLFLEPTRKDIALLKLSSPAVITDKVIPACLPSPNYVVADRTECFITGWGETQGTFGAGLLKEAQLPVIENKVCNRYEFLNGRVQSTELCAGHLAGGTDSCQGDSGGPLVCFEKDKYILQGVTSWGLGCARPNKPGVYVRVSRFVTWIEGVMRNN
Experiment [5] addresses T1, Suppressor of tumorigenicity 14 protein (Homo sapiens, UniProt Q9Y5Y6).
T1 sequence (Q9Y5Y6 whole entry): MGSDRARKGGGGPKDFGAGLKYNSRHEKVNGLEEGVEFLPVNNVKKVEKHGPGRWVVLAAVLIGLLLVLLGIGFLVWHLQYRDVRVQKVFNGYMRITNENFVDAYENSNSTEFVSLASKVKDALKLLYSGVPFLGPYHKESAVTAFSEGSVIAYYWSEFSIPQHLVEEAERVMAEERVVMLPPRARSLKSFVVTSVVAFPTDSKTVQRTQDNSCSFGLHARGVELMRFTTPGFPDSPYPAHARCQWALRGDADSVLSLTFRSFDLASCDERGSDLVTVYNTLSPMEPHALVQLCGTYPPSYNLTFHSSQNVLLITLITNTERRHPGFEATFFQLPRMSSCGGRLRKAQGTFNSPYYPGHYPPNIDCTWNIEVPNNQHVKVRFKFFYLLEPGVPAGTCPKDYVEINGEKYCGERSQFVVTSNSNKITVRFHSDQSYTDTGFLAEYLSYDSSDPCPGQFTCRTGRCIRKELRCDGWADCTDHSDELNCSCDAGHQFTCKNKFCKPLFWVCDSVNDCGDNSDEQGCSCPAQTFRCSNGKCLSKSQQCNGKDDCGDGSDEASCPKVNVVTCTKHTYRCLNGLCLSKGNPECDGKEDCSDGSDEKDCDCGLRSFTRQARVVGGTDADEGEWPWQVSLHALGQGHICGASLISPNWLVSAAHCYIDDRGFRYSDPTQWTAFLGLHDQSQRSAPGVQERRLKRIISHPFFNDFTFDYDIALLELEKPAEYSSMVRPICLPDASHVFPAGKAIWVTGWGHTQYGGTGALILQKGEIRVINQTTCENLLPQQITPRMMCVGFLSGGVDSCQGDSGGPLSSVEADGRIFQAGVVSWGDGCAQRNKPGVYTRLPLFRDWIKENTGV

pKi: −log10 of the molar value. Bounds are passed on as bounds.

Sequence of Coagulation factor X (P00742 41-179 limits assumed): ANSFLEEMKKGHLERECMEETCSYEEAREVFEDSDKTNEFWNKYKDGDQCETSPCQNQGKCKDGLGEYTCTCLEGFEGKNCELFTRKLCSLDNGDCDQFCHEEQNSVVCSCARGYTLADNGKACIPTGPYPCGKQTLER
Sequence of Coagulation factor X (P00742 235-488 limits assumed): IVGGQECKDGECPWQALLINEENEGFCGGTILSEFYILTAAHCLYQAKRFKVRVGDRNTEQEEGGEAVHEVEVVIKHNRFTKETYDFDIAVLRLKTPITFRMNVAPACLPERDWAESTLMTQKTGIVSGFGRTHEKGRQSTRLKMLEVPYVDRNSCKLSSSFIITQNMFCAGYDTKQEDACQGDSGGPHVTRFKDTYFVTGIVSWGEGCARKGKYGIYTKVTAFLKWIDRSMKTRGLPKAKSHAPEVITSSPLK

By pKi is commonly meant the negative decadic logarithm of the Ki, by convention in mol/L. The low end stands for a large Ki, the high end for a small Ki. For `CCOC(=O)N1CCN(C(=O)[C@H](Cc2cccc(C(=N)N)c2)NS(=O)(=O)c2c(C(C)C)cc(C(C)C)cc2C(C)C)CC1`, the negative-log Ki (pKi) in experiment [1] was 5.77.

Take `N=C(N)NCCC(=O)N1CCN(C(=O)[C@H](Cc2cccc(C(=N)N)c2)NS(=O)(=O)c2ccc3cc4ccccc4cc3c2)CC1`: the pKi in experiment [2] was 5.21; in experiment [3], 6.34; in experiment [1] it was 5.34; in experiment [4], 5.49.

On to `N=C(N)c1cccc(C[C@H](NS(=O)(=O)c2ccc(C3CCCCC3)cc2)C(=O)N2CCNCC2)c1`, for which the pKi in experiment [2] was 5.18; in experiment [3] it was 6.77; in experiment [1], 5.96; in experiment [4], 5.55.

With `N=C(N)NCCC1CCN(C(=O)[C@H](Cc2cccc(C(=N)N)c2)NS(=O)(=O)c2ccc(C3CCCCC3)cc2)CC1`, the pKi in experiment [2] is 5.72; in experiment [3] it was 7.29; in experiment [5], 7.06; in experiment [1], 5.74; in experiment [4], 5.70.

In the case of `N=C(N)c1cccc(C[C@H](NS(=O)(=O)c2cccc(NC(=O)CCN)c2)C(=O)N2CCC(CCN=C(N)N)CC2)c1`, the pKi in experiment [2] was 5.77; in experiment [3] it was 5.22; in experiment [5], 8.74; in experiment [1], 5.02; in experiment [4], 5.30.

For the molecule `Cc1c(C)c(S(=O)(=O)N[C@@H](Cc2cccc(C(=N)N)c2)C(=O)N2CCN(C(=O)CCN=C(N)N)CC2)c(C)c2c1OC(C)(C)C2`, the pKi in experiment [2] was 4.60; in experiment [3], 5.52; in experiment [5] it was 6.14; in experiment [1], < 3.00; in experiment [4], 4.99.

For `N=C(N)c1cccc(C[C@H](NS(=O)(=O)c2cccc(NC(=O)CCCN)c2)C(=O)N2CCC(CCN)CC2)c1`, the pKi in experiment [2] is 5.10; in experiment [3], 4.68; in experiment [1] it was 4.64; in experiment [4], 5.60.

For `N=C(N)c1cccc(C[C@H](NS(=O)(=O)c2ccc3ccccc3c2)C(=O)N2CCC(C3CCN(C(=N)N)CC3)CC2)c1`, the pKi in experiment [2] was 5.89; in experiment [3], 5.74; in experiment [1], 4.60; in experiment [4] it was 5.85.

As to `N=C(N)NCCC(=O)N1CCN(C(=O)[C@H](Cc2cccc(C(=N)N)c2)NS(=O)(=O)c2ccc(C3CCCCC3)cc2)CC1`, the pKi in experiment [2] was 4.98; in experiment [3], 6.92; in experiment [5], 7.05; in experiment [1], 5.64; in experiment [4] it was 6.11.

As for `CC(C)c1cc(C(C)C)c(S(=O)(=O)N[C@@H](Cc2cccc(C(=N)N)c2)C(=O)N2CCC(C(=O)NCCN)CC2)c(C(C)C)c1`, the pKi in experiment [2] was 5.92; in experiment [3], 4.80; in experiment [5], 6.42; in experiment [1], 5.20; in experiment [4] it was 6.03.

In the case of `N=C(N)NCCC(=O)N1CCN(C(=O)[C@H](Cc2cccc(C(=N)N)c2)NS(=O)(=O)c2ccc3c(c2)C(=O)c2ccccc2C3=O)CC1`, the negative-log Ki (pKi) is 4.59 in experiment [2]; 5.74 in experiment [3]; 7.28 in experiment [5]; 5.55 in experiment [1]; 5.14 in experiment [4].

On to `CC(C)c1cc(C(C)C)c(S(=O)(=O)N[C@@H](Cc2cccc(C(=N)N)c2)C(=O)N2CCCN(C(=O)CCN=C(N)N)CC2)c(C(C)C)c1`, for which the pKi in experiment [2] was 6.09; in experiment [3], 6.21; in experiment [5], 7.19; in experiment [1], 5.92; in experiment [4], 6.36.

For `CC(C)c1cc(C(C)C)c(S(=O)(=O)N[C@@H](Cc2cccc(C(=N)N)c2)C(=O)N2CCCN(C(=O)CCN)CC2)c(C(C)C)c1`, the pKi is 5.92 in experiment [2], 6.31 in experiment [3], 5.28 in experiment [1] and 6.44 in experiment [4].

`N=C(N)c1cccc(C[C@H](NS(=O)(=O)c2cccc(NC(=O)CCN)c2)C(=O)N2CCC(CCCN)CC2)c1`: the pKi in experiment [2] was 5.82; in experiment [3], 4.89; in experiment [5], 8.30; in experiment [1], 4.82; in experiment [4], 5.57.

Regarding `N=C(N)c1cccc(C[C@H](NS(=O)(=O)c2ccc3ccccc3c2)C(=O)N2CCC(CCCN)CC2)c1`, the pKi in experiment [2] is 5.68; in experiment [3], 6.22; in experiment [5] it was 6.80; in experiment [1] it was 4.18; in experiment [4], 6.14.

Take `CC(C)c1cc(C(C)C)c(S(=O)(=O)N[C@@H](Cc2cccc(C(=N)N)c2)C(=O)N2CCNCC2)c(C(C)C)c1`: the pKi is 6.06 in experiment [2]; 5.89 in experiment [3]; 7.00 in experiment [5]; 5.34 in experiment [1]; 6.10 in experiment [4].

Take `N=C(N)c1cccc(C[C@H](NS(=O)(=O)c2ccc(-c3ccccc3)cc2)C(=O)N2CCN(C(=O)C3CCN(C(=N)N)CC3)CC2)c1`: the pKi was 4.92 in experiment [2], 5.89 in experiment [3], 5.55 in experiment [1] and 5.85 in experiment [4].

Consider `Cc1ccc(S(=O)(=O)NC(Cc2cccc(C(=N)N)c2)C(=O)N2CCCCC2)cc1` (configuration not stated), for which the negative logarithm of the Ki (pKi) in experiment [5] was 4.85.

Take `CC(C)c1cc(C(C)C)c(S(=O)(=O)N[C@@H](Cc2cccc(C(=N)N)c2)C(=O)N2CCN(C(=O)CCN)CC2)c(C(C)C)c1`: the negative logarithm of the Ki (pKi) was 5.48 in experiment [3], 4.82 in experiment [1] and 6.36 in experiment [4].

In the case of `CC(C)c1cc(C(C)C)c(S(=O)(=O)N[C@@H](Cc2cccc(C(=N)N)c2)C(=O)N2CCN(C(=O)CCCN=C(N)N)CC2)c(C(C)C)c1`, the pKi in experiment [2] was 6.59; in experiment [3], 5.38; in experiment [5], 7.21; in experiment [1] it was 5.55; in experiment [4], 6.06.

As to `N=C(N)c1cccc(C[C@H](NS(=O)(=O)c2cccc3ccccc23)C(=O)N2CCC(CCN=C(N)N)CC2)c1`, the pKi in experiment [2] was 5.64; in experiment [3], 6.72; in experiment [5] it was 7.14; in experiment [1], 4.89; in experiment [4] it was 5.77.

On to `CCC(=O)N1CCN(C(=O)[C@H](Cc2cccc(C(=N)N)c2)NS(=O)(=O)c2ccc3c(c2)C(=O)c2ccccc2C3=O)CC1`, for which the pKi in experiment [2] was 4.51; in experiment [3], 7.27; in experiment [1], 5.89; in experiment [4] it was 5.22.

As to `CCC(C)(C)c1ccc(S(=O)(=O)N[C@@H](Cc2cccc(C(=N)N)c2)C(=O)N2CCN(C(=O)CCN=C(N)N)CC2)cc1`, the pKi in experiment [2] is 4.74; in experiment [3], 6.59; in experiment [5], 6.70; in experiment [1], 5.08; in experiment [4], 5.60.

For `N=C(N)NCCC(=O)N1CCN(C(=O)[C@H](Cc2cccc(C(=N)N)c2)NS(=O)(=O)c2ccc(-c3ccccc3)cc2)CC1`, the pKi in experiment [2] was 5.40; in experiment [3], 6.24; in experiment [5], 6.60; in experiment [1], 5.00; in experiment [4], 5.51.

As for `CC(C)c1cc(C(C)C)c(S(=O)(=O)N[C@@H](Cc2cccc(C(=N)N)c2)C(=O)N2CCN(C(=O)C3CCNCC3)CC2)c(C(C)C)c1`, the pKi in experiment [2] is 5.92; in experiment [3], 5.27; in experiment [1], 4.77; in experiment [4], 5.89.

Take `N=C(N)c1cccc(C[C@H](NS(=O)(=O)c2ccc3ccccc3c2)C(=O)N2CCC(CCN)CC2)c1`: the pKi in experiment [2] is 5.64; in experiment [3], 6.68; in experiment [1], 4.12; in experiment [4], 5.85.

As for `CC(C)c1cc(C(C)C)c(S(=O)(=O)N[C@@H](Cc2cccc(C(=N)N)c2)C(=O)N2CCN(C(=O)C3CCN(C(=N)N)CC3)CC2)c(C(C)C)c1`, the pKi was 5.96 in experiment [2], 5.30 in experiment [3], 5.00 in experiment [1] and 6.22 in experiment [4].

Consider `CC(C)c1cc(C(C)C)c(S(=O)(=O)N[C@@H](Cc2cccc(C(=N)N)c2)C(=O)N2CCCN(C(=O)C3CCNCC3)CC2)c(C(C)C)c1`, for which the pKi in experiment [2] is 5.60; in experiment [3], 5.30; in experiment [1] it was 5.24; in experiment [4], 6.59.

On to `CC(C)c1cc(C(C)C)c(S(=O)(=O)N[C@@H](Cc2cccc(C(=N)N)c2)C(=O)N2CCN(C(=N)N)CC2)c(C(C)C)c1`, for which the pKi in experiment [2] is 5.80; in experiment [3], 4.89; in experiment [1], 5.43; in experiment [4], 5.74.

Turning to `N=C(N)c1cccc(C[C@H](NS(=O)(=O)c2cccc(NC(=O)CN)c2)C(=O)N2CCC(CCN)CC2)c1`, the pKi in experiment [2] was 4.96; in experiment [3], 5.15; in experiment [1], 4.46; in experiment [4], 5.35.

Regarding `N=C(N)c1cccc(C[C@H](NS(=O)(=O)c2ccc3ccccc3c2)C(=O)N2CCC(C3CCNCC3)CC2)c1`, the pKi is 5.66 in experiment [2], 4.92 in experiment [3], 4.62 in experiment [1] and 6.68 in experiment [4].

For `CC(C)c1cc(C(C)C)c(S(=O)(=O)NC(Cc2cccc(C(=N)N)c2)C(=O)N2CCN(C(=O)CCN=C(N)N)CC2)c(C(C)C)c1` (configuration not stated), the pKi in experiment [5] was 7.09.

The values above are taken from ChEMBL document CHEMBL1138903, “Secondary amides of sulfonylated 3-amidinophenylalanine. New potent and selective inhibitors of matriptase” (J Med Chem, 2006).
